Results as given in patent US10273217B2, “Triazole derivatives” (Hoffmann-La Roche Inc., priority 2015, dated 2019).

Key:
human EAAT3 = molecular target: T1, human EAAT3 (Homo sapiens, UniProt P43005); test: FLIPR Membrane Potential (FMP) assay, antagonist potency at human EAAT3; format: cell-based; settings: HEK-293 cells stably expressing human EAAT3; L-glutamate as agonist at EC80; Kb from IC50 by Cheng-Prusoff equation
T1 construct: expressed in transfected cells
T1 sequence (P43005 1-524): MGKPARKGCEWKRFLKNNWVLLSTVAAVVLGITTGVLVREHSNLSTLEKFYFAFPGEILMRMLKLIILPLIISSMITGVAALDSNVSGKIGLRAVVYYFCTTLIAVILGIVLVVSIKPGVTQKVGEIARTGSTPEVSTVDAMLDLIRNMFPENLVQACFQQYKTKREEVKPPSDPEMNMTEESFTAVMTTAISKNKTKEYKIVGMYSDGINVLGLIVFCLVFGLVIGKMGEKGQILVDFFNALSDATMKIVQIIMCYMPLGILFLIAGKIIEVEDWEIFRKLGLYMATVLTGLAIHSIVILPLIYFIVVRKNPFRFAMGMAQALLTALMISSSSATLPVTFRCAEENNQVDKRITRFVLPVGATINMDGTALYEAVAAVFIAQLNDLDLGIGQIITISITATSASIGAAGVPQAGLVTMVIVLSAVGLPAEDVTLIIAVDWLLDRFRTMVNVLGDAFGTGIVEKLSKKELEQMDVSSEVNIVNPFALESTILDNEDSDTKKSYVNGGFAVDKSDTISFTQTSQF
Description: The FLIPR Membrane Potential (FMP) Assay
HEK-293 cells stably expressing human EAAT3 were seeded at 55 000 cells/well in growth medium (DMEM glutamate free (Invitrogen 11960-044), 1% Pen Strep (10 ml/l GIBCO BRL N°15140-023), 10% FCS non dialysed heat inactivated, 5 mg/l puromycin) in poly-D-lysine treated 96-well black microtiter plates with clear-bottom. After 24 h, the growth medium was removed and 100 μl/well of Krebs buffer (140 mM NaCl, 4.7 mM KCl, 2.5 mM CaCl2, 1.2 mM MgCl2, 11 mM HEPES, 10 mM D-glucose, pH=7.4) added. The cells were then loaded by adding 100 μl/well FMP assay dye (FLIPR Membrane Potential assay reagent, Molecular Devices). The 96-well plates were then incubated at 37° C. for 1 h. The depolarization of the cells will cause more dye to enter in the cells, where it will bind to intracellular proteins and lipids and cause an increase in the fluorescence signal. Antagonist potency at human EAAT3 was determined by using L-glutamate as agonist at a concentration which gives 80% of the maximum response. The antagonists were applied 15 min before the application of the agonist L-glutamate. The assays were performed at room temperature and measurements done by using a Fluorometric Imaging Plate Reader (FLIPR, Molecular Devices) and filter #2. Responses were measured as peak increase in fluorescence minus basal (i.e. fluorescence without addition of L-glutamate). Kb was determined using the Cheng-Prusoff equation Kb=IC50/[1+(A/EC50)], where IC50 is the concentration of the antagonist producing 50% inhibition, A is the concentration of the agonist against which the IC50 is being determined (at EC80) and EC50 is the concentration of the agonist producing 50% […].

Kb (human EAAT3) [nM] | melting point [°C] | Structure (SMILES)
220 | 100 | CC(C)c1nncn1-c1cc(C(=O)NC(C)(C)C2CC2)cc(-c2ccc(C(F)(F)F)cc2)c1 [Example 19, N-(2-Cyclopropyl-propan-2-yl)-3-(3-propan-2-yl-1,2,4-triazol-4-yl)-5-[4-(trifluoromethyl)-phenyl]-benzamide]
76 | 241 | Cc1nncn1-c1cc(C(=O)NC(C)(C)C)cc(-c2ccc(Cl)cc2)c1 [Example 6, N-tert-Butyl-3-(4-chlorophenyl)-5-(3-methyl-1,2,4-triazol-4-yl)-benzamide]
390 | 135.5 | CC(C)(NC(=O)c1cc(-c2ccc(F)cc2)cc(-n2cnnc2)c1)C1CC1 [Example 3, N-(2-Cyclopropylpropan-2-yl)-3-(4-fluorophenyl)-5-(1,2,4-triazol-4-yl)-benzamide]
120 | 103 | CCC(C)(C)NC(=O)c1cc(-c2ccc(Cl)cc2)cc(-n2cnnc2C(C)C)c1 [Example 25, 3-(4-Chlorophenyl)-N-(2-methylbutan-2-yl)-5-(3-propan-2-yl-1,2,4-triazol-4-yl)-benzamide]
54 | 95 | CCC(C)(C)NC(=O)c1cc(-c2ccc(F)cc2)cc(-n2cnnc2C(C)C)c1 [Example 24, 3-(4-Fluorophenyl)-N-(2-methylbutan-2-yl)-5-(3-propan-2-yl-1,2,4-triazol-4-yl)-benzamide]
150 | 120 | CC(C)(NC(=O)c1cc(-c2ccc(Cl)cc2)cc(-n2cnnc2CO)c1)C1CC1 [Example 37, 3-(4-Chlorophenyl)-N-(2-cyclopropyl-propan-2-yl)-5-[3-(hydroxymethyl)-1,2,4-triazol-4-yl]-benzamide]
94 | 104 | CCC(C)(C)NC(=O)c1cc(-c2ccc(C(F)(F)F)cc2)cc(-n2cnnc2C(C)C)c1 [Example 23, N-(2-Methylbutan-2-yl)-3-(3-propan-2-yl-1,2,4-triazol-4-yl)-5-[4-(trifluoromethyl)-phenyl]-benzamide]
120 | 109 | Cc1ccc(-c2cc(C(=O)NC(C)(C)C)cc(-n3cnnc3C(C)C)c2)cc1F [Example 32, N-tert-Butyl-3-(3-fluoro-4-methyl-phenyl)-5-(3-propan-2-yl-1,2,4-triazol-4-yl)-benzamide]
130 | 225.5 | Cc1nncn1-c1cc(C(=O)NC(C)(C)C)cc(-c2ccc(C(F)(F)F)cc2)c1 [Example 7, N-tert-Butyl-3-(3-methyl-1,2,4-triazol-4-yl)-5-[4-(trifluoromethyl)-phenyl]-benzamide]
145 | 210 | CC(C)(C)NC(=O)c1cc(-c2ccc(Cl)cc2)cc(-n2cnnc2CO)c1 [Example 26, N-tert-Butyl-3-(4-chlorophenyl)-5-[3-(hydroxymethyl)-1,2,4-triazol-4-yl]-benzamide]
